We go through 12 compounds from patent publication US8188139B2, “Heterocyclic-substituted phenyl methanones” (Hoffman-La Roche Inc., priority 2005, dated 2012).

This test deals with T1, mGlyT-1b (Mus musculus, UniProt P28571).
T1 construct: host or cells: Flp-in-CHO
T1 sequence (P28571 1-651 isoform P28571-2): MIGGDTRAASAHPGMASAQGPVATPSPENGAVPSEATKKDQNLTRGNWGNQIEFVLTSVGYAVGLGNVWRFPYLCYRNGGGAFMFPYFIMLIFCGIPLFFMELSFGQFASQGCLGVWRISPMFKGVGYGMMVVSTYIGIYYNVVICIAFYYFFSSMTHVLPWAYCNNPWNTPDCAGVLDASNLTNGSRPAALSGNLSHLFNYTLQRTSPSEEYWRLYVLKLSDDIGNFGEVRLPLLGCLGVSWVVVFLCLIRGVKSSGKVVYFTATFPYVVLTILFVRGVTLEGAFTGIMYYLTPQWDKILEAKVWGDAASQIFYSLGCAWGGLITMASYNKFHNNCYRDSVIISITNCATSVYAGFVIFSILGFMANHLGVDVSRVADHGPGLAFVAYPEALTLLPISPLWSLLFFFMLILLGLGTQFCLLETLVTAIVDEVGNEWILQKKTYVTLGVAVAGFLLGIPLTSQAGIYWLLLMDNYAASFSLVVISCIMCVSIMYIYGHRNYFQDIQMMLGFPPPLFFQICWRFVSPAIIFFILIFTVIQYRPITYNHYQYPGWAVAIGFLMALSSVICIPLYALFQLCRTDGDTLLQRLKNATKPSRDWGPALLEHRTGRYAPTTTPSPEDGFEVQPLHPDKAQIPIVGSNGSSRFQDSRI
Nature of the test: Glycine uptake inhibition assay (mGlyT-1b). In kind it is cell-based. Particulars: inhibition of [3H]-glycine uptake in Flp-in-CHO cells transfected with mGlyT-1b cDNA; 20 min preincubation at 22° C.; read-out: IC50 (μM) at GlyT-1. Here is the method:
DMEM complete medium: Nutrient mixture F-12 (Gibco Life-technologies), fetal bovine serum (FBS) 5%, (Gibco life technologies), Penicillin/Streptomycin1% (Gibco life technologies), Hygromycin 0.6 mg/ml (Gibco life technologies), Glutamine 1 mM Gibco life technologies)
Uptake buffer (UB): 150 mM NaCl, 10 mM Hepes-Tris, pH 7.4, 1 mM CaCl2, 2.5 mM KCl, 2.5 mM MgSO4, 10 mM (+) D-glucose.
Flp-in™-CHO (Invitrogen Cat n^o R758-07) cells stably transfected with mGlyT1b cDNA.
Glycine Uptake Inhibition Assay (mGlyT-1b)
On day 1 mammalian cells, (Flp-in™-CHO), transfected with mGlyT-1b cDNA, were plated at the density of 40,000 cells/well in complete F-12 medium, without hygromycin in 96-well culture plates. On day 2, the medium was aspirated, and the cells were washed twice with uptake buffer (UB). The cells were then incubated for 20 min at 22° C. with either (i) no potential competitor, (ii) 10 mM non-radioactive glycine, (iii) a concentration of a potential inhibitor. A range of concentrations of the potential inhibitor was used to generate data for calculating the concentration of inhibitor resulting in 50% of the effect (e.g. IC50, the concentration of the competitor inhibiting glycine uptake of 50%). A solution was then immediately added containing [^3H]-glycine 60 nM (11-16 Ci/mmol) and 25 μM non-radioactive glycine. The plates were incubated with gentle shaking, and the reaction was stopped by aspiration of the mixture and washing (three times) with ice-cold UB. The cells were lysed with scintillation liquid, shaken 3 hours, and the radioactivity in the cells was counted using a scintillation counter.

In the case of `Cc1cc2c(cc1Cl)CN(C(=O)c1cc(S(C)(=O)=O)ccc1O[C@H](C)C(F)(F)F)C2` [Example 49, (5-Chloro-6-methyl-1,3-dihydro-isoindol-2-yl)-[5-methanesulfonyl-2-((R)-2,2,2-trifluoro-1-methyl-ethoxy)-phenyl]-methanone], the IC50 is 0.034 µM. In the case of `CC(C)Oc1ccc(S(C)(=O)=O)cc1C(=O)N1Cc2cc(Cl)c(OC3CCOCC3)cc2C1` [Example 376, [5-Chloro-6-(tetrahydro-pyran-4-yloxy)-1,3-dihydro-isoindol-2-yl]-(2-isopropoxy-5-methanesulfonyl-phenyl)-methanone] it was 0.016 µM; in that of `CS(=O)(=O)c1ccc(OCC2CCC2)c(C(=O)N2Cc3ccc(C4CCOCC4)cc3C2)c1` [Example 272, (2-Cyclobutyl-methoxy-5-methane-sulfonyl-phenyl)-[5-(tetrahydro-pyran-4-yl)-1,3-dihydro-isoindol-2-yl]-methanone], 0.034 µM. Regarding `C[C@H](Oc1ccc(S(C)(=O)=O)cc1C(=O)N1Cc2ccc(-c3nccs3)cc2C1)C(F)(F)F` [Example 172, [5-Methanesulfonyl-2-((S)-2,2,2-trifluoro-1-methyl-ethoxy)-phenyl]-(5-thiazol-2-yl-1,3-dihydro-isoindol-2-yl)-methanone], the IC50 is 0.03 µM. Regarding `C[C@H](Oc1ccc(S(C)(=O)=O)cc1C(=O)N1Cc2ccc(C(F)(F)F)cc2C1)C(F)(F)F` [Example 15, [5-Methanesulfonyl-2-((S)-2,2,2-trifluoro-1-methyl-ethoxy)-phenyl]-(5-trifluoromethyl-1,3-dihydro-isoindol-2-yl)-methanone], the IC50 was 0.021 µM. In the case of `C[C@H](Oc1ccc(S(C)(=O)=O)cc1C(=O)N1Cc2ccc(C3CCOCC3)cc2C1)C(F)(F)F` [Example 269, [5-Methanesulfonyl-2-((S)-2,2,2-trifluoro-1-methyl-ethoxy)-phenyl]-[5-(tetrahydro-pyran-4-yl)-1,3-dihydro-isoindol-2-yl]-methanone] it was 0.014 µM; in that of `CS(=O)(=O)c1ccc(OCC(F)(F)C(F)(F)F)c(C(=O)N2Cc3cnc(C(F)(F)F)cc3C2)c1` [Example 155, [5-Methanesulfonyl-2-(2,2,3,3,3-pentafluoro-propoxy)-phenyl]-(6-trifluoromethyl-1,3-dihydro-pyrrolo[3,4-c]pyridin-2-yl)-methanone], 0.044 µM. Next, `CC(C)COc1ccc(S(C)(=O)=O)cc1C(=O)N1Cc2cc(C(F)(F)F)cnc2C1` [Example 125, (2-Isobutoxy-5-methanesulfonyl-phenyl)-(3-trifluoromethyl-5,7-dihydro-pyrrolo[3,4-b]pyridin-6-yl)-methanone]: 0.03 µM; `Cc1cc(-c2ccc3c(c2)CN(C(=O)c2cc(S(C)(=O)=O)ccc2O[C@@H](C)C(F)(F)F)C3)ccn1` [Example 169, [5-Methanesulfonyl-2-((S)-2,2,2-trifluoro-1-methyl-ethoxy)-phenyl]-[5-(2-methyl-pyridin-4-yl)-1,3-dihydro-isoindol-2-yl]-methanone]: 0.003 µM; `CS(=O)(=O)c1ccc(OCC(F)(F)C(F)F)c(C(=O)N2Cc3cnc(C(F)(F)F)cc3C2)c1` [Example 156, [5-Methanesulfonyl-2-(2,2,3,3-tetrafluoro-propoxy)-phenyl]-(6-trifluoromethyl-1,3-dihydro-pyrrolo[3,4-c]pyridin-2-yl)-methanone]: 0.047 µM. In the case of `CS(=O)(=O)c1ccc(OCC(F)(F)C(F)(F)F)c(C(=O)N2Cc3cc(C(F)(F)F)cnc3C2)c1` [Example 157, [5-Methanesulfonyl-2-(2,2,3,3,3-pentafluoro-propoxy)-phenyl]-(3-trifluoromethyl-5,7-dihydro-pyrrolo[3,4-b]pyridin-6-yl)-methanone] it was 0.025 µM. For `C[C@H](Oc1ccc(S(C)(=O)=O)cc1C(=O)N1Cc2ccc(C3CCOC3)cc2C1)C(F)(F)F` (stereo partly drawn) [Example 304, [5-Methanesulfonyl-2-((S)-2,2,2-trifluoro-1-methyl-ethoxy)-phenyl]-[5-(tetra-hydro-furan-3-yl)-1,3-dihydro-isoindol-2-yl]-methanone], the IC50 is 0.008 µM.

For orientation: IC50 means the concentration that inhibits the measured activity by half.
